# Source: patent US20200247897A1, “THERAPEUTIC ANTIBODIES BASED ON MUTATED IGG HEXAMERS” (GENMAB B.V., priority 2017, published 2020)
# Entries after “also recorded” stand apart in the source; their conditions may differ.
# Assays:
# [1] = test system: COLO 205 human colon cancer cells; test: 3-days CellTiter-Glo viability assay, COLO 205; assay type: cell-based
# Protocol: COLO 205 cells were harvested by pooling the culture supernatant containing non-adherent cells and trypsinized adherent cells. HCT 116 cells were harvested by trypsinization. […] In samples that were treated with a combination of two antibodies, the total antibody concentration in the assay was the same as in the samples that were treated with single antibodies. […] From the kit, 20 μL luciferin solution reagent was added per well and mixed by shaking the plate for 2 minutes at 500 rpm. Next, plates were incubated for 1.5 hours at 37° C. 100 μL supernatant was transferred to a white OptiPlate-96 (Perkin Elmer, Cat nr 6005299) and luminescence was measured on an EnVision Multilabel Reader (PerkinElmer). Data were analyzed and plotted using non-linear regression (sigmoidal dose-response with variable slope) using GraphPad Prism software.
# The antibodies with and without the E430G mutation were tested as single agent and as combinations of the two non-crossblocking antibodies. COLO 205 cells were harvested as described in Example 8.
# [2] = test system: PANC-1 pancreatic cancer cells; test: 3-days CellTiter-Glo viability assay, PANC-1; assay type: cell-based, human; details: 10 μg/mL
# [3] = test system: COLO 205 human colon cancer cells; test: Subcutaneous COLO 205 colon cancer xenograft model; assay type: in vivo, SCID mice
# Protocol: The in vivo anti-tumor efficacy of different anti-DR5 antibodies and the combination of DR5-01+DR5-05 antibodies with hexamerization enhancing mutation was evaluated in a subcutaneous model with COLO 205 human colon cancer cells. At day 0, cells were harvested by pooling the culture supernatant containing non-adherent cells and trypsinized adherent cells. 3×10^6 cells were injected in a volume of 200 μL PBS into the flank of 6-11 weeks old female SCID mice (C.B-17/IcrHan®Hsd-Prkdc^scid; Harlan). All experiments and animal handlings were approved by the local authorities, and were conducted according to all applicable international, national and local laws and guidelines. Tumor development was monitored at least twice per week by caliper (PLEXX) measurement as 0.52×(length)×(width)^2. […] Mice were treated by intraperitoneal (i.p.) injection of 100 μg antibody in 200 μL PBS on day 6 and 13 (5 mg/kg per dose). To check for correct antibody administration, blood samples were obtained for IgG serum determination three days after the first dose. […] Tumors were measured until 16 weeks after tumor inoculation.
# Mice were treated by intravenous (i.v.) injection of 40 μg (2 mg/kg), 10 μg (0.5 mg/kg) or 2 μg (0.1 mg/kg) antibody in 100 μL PBS on day 10. Mice in the control group were treated with 40 μg (2 mg/kg) IgG1-b12. Tumors were measured until 17 weeks after tumor inoculation.
# At day 9, the average tumor volume was measured and the mice were sorted into groups with equal tumor size variance. Mice were treated by intravenous (i.v.) injection of 10 μg (0.5 mg/kg) antibody in 200 μL PBS on day 9. Mice in the control group were treated with 10 μg (0.5 mg/kg) IgG1-b12.
# [4] = test system: HCT-15 human colon cancer cells; test: Subcutaneous HCT-15 colon cancer xenograft model; assay type: in vivo, BALB/c nude mice; details: Example 30: 0.5, 2, 10 mg/kg i.v., twice Q7D
# Protocol: (§1) The care and use of animals during the study were conducted in accordance with the regulations of the Association for Assessment and Accreditation of Laboratory Animal Care (AAALAC). Tumor volumes were measured twice weekly in two dimensions using a caliper, and the volume was expressed in mm^3 using the formula: V=0.5 a×b2 where a and b are the long and short diameters of the tumor, respectively.
# as §1, with “a×b^2” for “a×b2”
# [5] = test system: SW480 human colon cancer cells; test: Subcutaneous SW480 colon cancer xenograft model; assay type: in vivo, NOD/SCID mice; details: 0.5, 2, 10 mg/kg i.v., twice Q7D
# Protocol: 1×10^7 cells were injected in a volume of 200 μL PBS with Matrigel (1:1) into the flank of 6-8 weeks old female NOD/SCID mice (Beijing HFK Bioscience).
# [6] = test system: BxPC-3 pancreatic cancer cells; test: 3-days CellTiter-Glo viability assay, BxPC-3
# [7] = test system: HCT-15 colon cancer cells; test: 3-days CellTiter-Glo viability assay, HCT-15; details: 4 μg/mL
# [8] = test system: SK-MES-1 human lung cancer cells; test: Subcutaneous SK-MES-1 lung cancer xenograft model; details: Example 33: 0.5, 2, 10 mg/kg i.v., twice Q7D
# Protocol: The cells were maintained in vitro as a monolayer culture in MEM medium supplemented with 10% fetal bovine serum and 0.01 mM NEAA at 37° C. in an atmosphere of 5% CO2 in air. At day 0, adherent cells in an exponential growth phase were harvested by trypsin-EDTA treatment. 5×10^6 cells were injected in a volume of 100 μL PBS into the flank of 6-8 weeks old female BALB/c mice (Shanghai Laboratory Animal Center). Mouse handling and tumor volume measurements were performed as described in Example 30. Twenty-one days after tumor inoculation, the mean tumor size reached 161 mm^3 and mice were assigned into groups using randomized block design and treatments were started. Mice were treated twice according to a Q7D regimen by i.v. injection of 200 μg (10 mg/kg), 40 μg (2 mg/kg) or 10 μg (0.5 mg/kg) antibody in 10 μL PBS per g body weight. Mice in the control group were treated in parallel with 200 μg (10 mg/kg) IgG1-b12. After tumor inoculation, welfare of the animals was checked daily and tumor volumes were measured twice weekly.
# Cell culturing, tumor cell inoculation, mice handling, tumor outgrowth measurements and endpoint determination were performed as described in Example 33.
# [9] = 10 μg/mL, F(ab')2 goat-anti-human IgG, listed as IgG1-DR5-CONA
substance,measurement,setting,value
"IgG1-CONA: reference anti-DR5 antibody based on U.S. Pat. No. 7,521,048 B2 and WO2010/138725",killing of COLO 205 cells in presence of Fc crosslinker,[1]; [9],Fc crosslinking induced killing; also recorded: only induced killing in the presence of Fc crosslinker
same,killing of COLO 205 cells in absence of Fc crosslinker,"[1]; 10 μg/mL, adherent cells",did not induce target cell killing in the absence of an Fc crosslinker
same,killing of adherent (attached) COLO 205 cells (% viable cells),"[1]; cells adhered overnight before adding antibody, dilution series",not able to kill attached COLO 205 colon cancer cells
same,killing of PANC-1 cells in absence of Fc crosslinker,[2],did not induce target cell killing in the absence of an Fc crosslinker
same,tumor growth (mean tumor volume),[3]; Example 26: 5 mg/kg i.p. on day 6 and 13,"strongly inhibited tumor growth compared to IgG1-b12, but did not result in complete tumor abrogation"
same,"tumor growth progression versus IgG1-b12 (Kaplan-Meier, cutoff >500 mm^3)",[3]; Example 27: 0.5 mg/kg and 2 mg/kg,significantly inhibited tumor growth progression compared to the negative control antibody IgG1-b12
same,tumor regression (mean tumor volume),[3]; Example 27: single dose 0.5 mg/kg i.v. day 10,regression was incomplete with recurring tumor outgrowth in all mice
same,tumor regression (mean tumor volume),[3]; Example 27: single dose 2 mg/kg i.v. day 10,almost all (7/8) mice
same,tumor growth (mean tumor volume),[4],did not
same,tumor growth (mean tumor volume) versus IgG1-b12,[5],"only better than IgG1-b12 at the highest doses (10 mg/kg and 2 mg/kg p<0.01), but not at 0.5 mg/kg"
same,effect of secondary crosslinker on killing of BxPC-3 cells,[6]; 4 μg/mL,enhanced by the presence of a secondary crosslinker
same,killing of BxPC-3 cells in absence of Fc crosslinker,[6]; 10 μg/mL,did not induce target cell killing in the absence of an Fc crosslinker
same,killing of BxPC-3 cells in presence of Fc crosslinker,[6]; [9],Fc crosslinking induced killing; also recorded: only induced killing in the presence of Fc crosslinker
same,effect of secondary crosslinker on killing of HCT15 cells,[7],enhanced by the presence of a secondary crosslinker
same,tumor growth (mean tumor volume) versus IgG1-b12,[8],only had a significant effect compared to IgG1-b12 at 10 mg/kg (p<0.01) and 2 mg/kg (p<0.05) but not at 0.5 mg/kg
